Experimental data reported in PubChem BioAssay AID602254 (Broad Institute, 2012).
Calls of active or inactive are those of the source.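 How the source made its calls: active means fitted half-maximal concentration no higher than twice the top valid tested dose, with signal falling; inconclusive means flat curve with 30 to 70% inhibition, or poor fit; inactive means the rest.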

target: Golgi-associated PDZ and coiled-coil motif-containing protein (Homo sapiens) (UniProt Q9HD26); experiment: blockers of CAL PDZ–TMR peptide complex – biochemical, fluorescence polarization, untagged CAL PDZ, cherry-pick, set 2, dose response (AID 602254); details: Purified CAL PDZ;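 further: potency of inhibitors that displace the labelled peptide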

| Structure (SMILES) | AC50 |
| --- | --- |
| CC(=O)N1CCc2cc(S(=O)(=O)NC(C(=O)NCc3ccccc3)C(C)C)ccc21 (centres undefined) | > 120 µM (inactive) |
| OCCC1CN(Cc2ccc3nsnc3c2)CCN1C1CCCCC1 (centres undefined) | > 120 µM (inactive) |
| Cc1cccc(OCC(=O)OCC(=O)Nc2ccc(Cl)cn2)c1 | > 120 µM (inactive) |
| CCN(CC)c1ccc(N2C(=O)CSC2=S)cc1 | > 120 µM (inactive) |
| CN(C)S(=O)(=O)c1cccc(COc2ncnc3c(Cl)cc(Cl)cc23)c1 | > 120 µM (inactive) |
| Cc1cc(NC(=O)c2c(Br)c(C)nn2C)no1 | > 120 µM (inactive) |
| CN(Cc1ccc(Cl)s1)C(=O)CNC(=O)CNC(=O)c1ccc(Cl)cc1Cl | > 120 µM (inactive) |
| CCN(CC)CCn1c(=S)[nH]c2ccc(Br)cc2c1=O | > 120 µM (inactive) |
| Cc1cc(NC(=O)c2ccc(C#N)cc2)n(-c2ccccn2)n1 | > 120 µM (inactive) |
| COc1ccc(CC2CCOC2=O)cc1 (centres undefined) | > 120 µM (inactive) |
| Cc1cc(F)ccc1NC(=O)c1cc(S(=O)(=O)N2CCCC2)cn1C | > 120 µM (inactive) |
| Cc1c(NS(=O)(=O)c2ccc(S(=O)(=O)c3ccccc3)s2)c(=O)n(-c2ccccc2)n1C | > 120 µM (inactive) |
| Cc1ccc(C)c(NC(=O)CN(C)C(=O)c2ccc3c(=O)n4c(nc3c2)CCC4)c1 | > 120 µM (inactive) |
| Cc1ccc2nc(COC(=O)c3ccc(Cl)nc3)cc(=O)n2c1 | > 120 µM (inactive) |
